Results taken from ChEMBL document CHEMBL6103638, “Dual Modulator of FXR and HSD17B13: Revitalizing FXR Therapies in MASH” (J Med Chem, 2025).

Target: T1, Bile acid receptor (Homo sapiens, UniProt Q96RI1)
T1 sequence (Q96RI1 whole entry): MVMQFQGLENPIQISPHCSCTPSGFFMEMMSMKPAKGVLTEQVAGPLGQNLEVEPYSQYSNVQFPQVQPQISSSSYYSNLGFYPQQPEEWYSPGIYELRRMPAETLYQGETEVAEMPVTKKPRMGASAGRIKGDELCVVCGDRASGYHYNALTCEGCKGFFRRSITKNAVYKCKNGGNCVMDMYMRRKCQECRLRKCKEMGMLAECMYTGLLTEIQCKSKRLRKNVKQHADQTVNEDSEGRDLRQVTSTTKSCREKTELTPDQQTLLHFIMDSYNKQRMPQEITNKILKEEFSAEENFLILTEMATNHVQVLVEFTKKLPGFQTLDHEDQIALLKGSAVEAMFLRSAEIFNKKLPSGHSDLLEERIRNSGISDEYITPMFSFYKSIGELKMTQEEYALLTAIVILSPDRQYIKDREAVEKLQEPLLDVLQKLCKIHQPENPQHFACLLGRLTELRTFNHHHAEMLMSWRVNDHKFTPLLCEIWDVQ
Experiment: Agonist activity at FXR (unknown origin)

EC50: 0.78 µM
SMILES: CC(C)(C)c1ccc(-n2cnc3c(NC(=O)Cc4ccc(C(=O)O)cc4)cccc32)cc1
